Molecular target: CYP68L1 (hydAN), steroid 11α-hydroxylase (Aspergillus nidulans, UniProt A0A6J3WXY1)
Assay: whole-cell fermentation of knockout strain expressing enzyme, HPLC
Format: cell-based
Conditions: 32 °C, 72 h; 11alpha-hydroxylation

CYP68L1 (hydAN), steroid 11α-hydroxylase, sequence (A0A6J3WXY1 entry or part of it): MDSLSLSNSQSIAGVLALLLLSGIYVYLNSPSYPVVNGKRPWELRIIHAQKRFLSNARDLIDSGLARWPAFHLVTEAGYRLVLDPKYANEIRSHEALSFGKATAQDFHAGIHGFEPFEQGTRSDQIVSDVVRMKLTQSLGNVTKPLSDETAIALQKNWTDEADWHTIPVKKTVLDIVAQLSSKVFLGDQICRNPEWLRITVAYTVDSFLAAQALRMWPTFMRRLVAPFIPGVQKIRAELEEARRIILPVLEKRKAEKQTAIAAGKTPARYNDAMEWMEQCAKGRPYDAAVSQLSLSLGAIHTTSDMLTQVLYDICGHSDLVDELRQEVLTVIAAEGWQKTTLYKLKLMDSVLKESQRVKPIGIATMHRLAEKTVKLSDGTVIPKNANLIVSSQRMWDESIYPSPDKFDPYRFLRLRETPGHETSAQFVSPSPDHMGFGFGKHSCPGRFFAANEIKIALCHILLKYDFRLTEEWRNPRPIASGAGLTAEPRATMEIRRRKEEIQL

## C[C@]12CCC(=O)C=C1CC[C@@H]1[C@@H]2CC[C@]2(C)C(=O)CC[C@@H]12 [AD, androstenedione]
  whole-cell fermentation of knockout strain expressing enzyme, HPLC: Hydroxylase activity was restored by expressing the hydAN gene encoding this CYP450 in the KOhydAN strain
